Legend:
[1] = biological target: T1, Cdk2/cyclin E (Homo sapiens, UniProt P24941); assay: Biochemical kinase assay Cdk2/cyclin E; conditions: Table 6
T1 construct: made in house; host or cells: Sf9 insect cells
Source text: (§1) Enzymes: Cdc2/cyclin B was obtained from commercial sources. Cdk2/his-cyclin Eshort was expressed in Sf9 cells. Cdk2/cyclin A, cdk4/cyclin D1, and cdk6/cyclin D2 were expressed in Sf9 cells. Protein kinase A (catalytic subunit, from bovine heart) and protein kinase C (mixed isozymes from rat brain) were obtained from commercial sources.
(§2) Substrates: Histone H1 was from commercial sources. GST-Rb is glutathione-S-trans-ferase fused to the N-terminal of residues 379-928 of the Rb protein.
(§3) Cdk2/cyclin E, Cdk2/cyclin A, Cdk4/cyclin D1, and Cdk6/cyclin D2 activity was determined using a glutathione-sepharose capture assay. The enzymes were expressed in Sf9 insect cells as heterodimers, and the substrate (GST-Rb) was glutathione-S-transferase fused to residues 379 to 928 of Rb retinoblastoma protein, expressed in E. coli. The assay solution contained 50 mM Tris.HCl, 10 mM MgCl2, 1 mM dithiothreitol, 50 μM adenosine triphosphate, 2 μCi [γ-^33P]adenosine triphosphate, 10% dimethylsulfoxide (from compounds), pH 7.5, 40 μg GST-Rb, and enzyme in a 100 μL volume. Compounds were added at various concentrations between 1 nM and 10 μM. The reaction was allowed to proceed for 15 min at 30° C. and was stopped by the addition of 70 μL of stop solution (237 mM disodium ethylene-diamine tetraacetate, 105 mM adenosine triphosphate, pH 8.0). The GST-Rb was captured by binding to glutathione-sepharose bead (Amersham) for 110 min, and the suspension was filtered through a glass fiber filter. After washing the retained beads five time with phosphate-buffered saline containing 0.3% (w/v) Tween-20, the amount of ^33P incorporated was determined by scintillation counting after adding 100 μL scintillant. Relative activity was determined by dividing the amount of radioactivity incorporated in the presence of compound by the amount of radioactivity incorporated in a control experiment containing DMSO alone but no compound. The background radioactivity, determined in an experiment containing 50 mM disodium ethylenediamine tetraacetate in place of compound, was subtracted from all results before calculations.

[2] = test system: HCT-116 cells; assay: Calcein AM viability assay, HCT-116; type: cell-based; conditions: Homo sapiens
Experimental: The potency of Cdk inhibitors, as measured by loss of cellular viability, was determined with the Calcein AM assay (Molecular Probes). Calcein AM is a substrate of intracellular esterases, which is cleaved only in viable cells to generate a fluorescent product that can be quantified with a fluorescent plate reader. The fluorescent signal is proportional to the number of viable cells, and thus loss of signal in response to the exposure of cells to Cdk inhibitors correlates with a loss of viability. This assay can distinguish cell cycle arrest, in which cells may still by viable, from loss of viability and is thus well suited for the evaluation of Cdk inhibitors. A compound that is a potent cytotoxic, may cause significant loss of cell viability in such assay.
Cellular IC50's were determined in the human colorectal carcinoma cell line, HCT-116, and the normal human fibroblast, IMR90. Protein adjusted IC50's were also determined in HCT-116.
HCT-116 or IMR90 cells were recovered from sub-confluent plates by trypsinization and 1,000 or 4,000 cells, respectively, were plated in 24-well dishes and incubated overnight at 37° C., 5% CO2. HCT-116 cells were cultured in RPMI-1640, 10% FCS, and IMR90 cells were cultured in Minimum Essential Medium-alpha, 10% FCS. After overnight incubation to allow adherence, the media was aspirated from each well and replaced with media containing a test compound at a concentration from 0 to 250 nM, spanning a total of 7 doses. The plates were returned to the incubator and cultured for an additional 72 hours (3 days). […] After 72-hours incubation with the test compound, the cells were washed twice with 1×PBS, taking special care to remove all residual buffer.
A 5 μM Calcein AM solution was prepared by dissolving a […] aliquot of Calcein (Molecular Probes catalog # C3100) in 50 μl DMSO. After the Calcein had completely dissolved (10 minutes at room temperature), it was diluted into 10 ml PBS. Calcein/PBS (0.5 ml) was added to each well. The plates were incubated for 75 minutes at 37° C. (protected from light) and the fluorescent signal was read on a fluorescent plate reader (excitation 485/20 and emission 530/25).

[3] = biological target: T2, Cdc2/cyclin B (Homo sapiens, UniProt P06493); assay: Biochemical kinase assay Cdc2/cyclin B; conditions: Table 6
T2 construct: purchased
Source text: as §1, §2
Assays: Cdc2/cyclinB activity was determined by measuring incorporation of radio-activity from adenosine [γ-^32P]triphosphate into Histone H1 using a TCA precipitation assay. Cdc2/cyclin B kinase and Histone H1 were obtained from commercial sources. The final assay solution contained 50 mM Tris.HCl, 10 mM MgCl2, 1 mM dithiothreitol, 50 μM adenosine triphosphate, 2 μCi ^32P, 10% dimethylsulfoxide (from compounds), pH 7.5, 20 μg Histone H1, 6 U enzyme in a 50 μL volume. Compounds were added at various concentrations between 1 nM and 10 μM. The reaction was started with the addition of enzyme, allowed to proceed for 20 min at 30° C., and stopped by the addition of 20 μL of stop solution (237 mM disodium ethylenediamine tetraacetate, 105 mM adenosine triphosphate, pH 8.0). The protein was precipitated by the addition of 35 μL 70% (w/v) trichloroacetic acid, and the precipitate was captured on a 96-well glass fiber filter plate (Millipore, Inc.), which had been wet with 25% (w/v) trichloroacetic acid. The filter was washed ten times with 25% (w/v) trichloroacetic acid, and the amount of incorporated ^32P was determined by scintillation counting after adding 100 μL scintillant (Microscint 20, Packard Instruments). Relative activity was determined by dividing the amount of radioactivity incorporated in the presence of compound by the amount of radioactivity incorporated in a control experiment containing DMSO alone but no compound. The background radioactivity, determined in an experiment containing 50 mM EDTA in place of compound, was subtracted from all results before calculations.

[4] = biological target: T3, Cdk4/cyclin D1 (Homo sapiens, UniProt P11802); assay: Biochemical kinase assay Cdk4/cyclin D1; conditions: Table 6
T3 construct: made in house; host or cells: Sf9 insect cells
Source text: as §1, §2, §3

[5] = test system: HCT-116 cells; assay: BrdU incorporation assay; type: cell-based; conditions: Homo sapiens, read-out: Brd U, concentration that inhibits BrdU incorporation by 50%
Experimental: This method measured the percentage of cells that incorporated the nucleotide analog, BrdU, into newly synthesized DNA as cells progressed through the S phase of the cell cycle. The inhibition of BrdU incorporation was used as a measure of a Cdk inhibitor's effect on S phase progression and DNA replication.
3 sets of HCT-116 cells (100,000 cells/set) were plated in T25 flasks and incubated with a test compound as above. Analysis was done at 24, 48, and 72 hours. BrdU was added to each T-25 flask from a stock of 10 mg/ml to a final concentration of 10 μM and the cells were incubated for an additional 16-18 hours at 37° C. The cells were then prepared for flow cytometric analysis according to manufacturer's protocol (BrdU Flow kit, BD-Pharmingen catalogue #2354KK) as follows:
Cells were harvested (adherent and floating) from the T25 flasks directly into Falcon 12×75 flow cytometric tubes as above followed by fixation and permeabilization with the addition of 100 μl of Cytofix/Cytoperm buffer (30 minutes, room temperature). The cells were then washed with 1 ml of Perm Wash buffer and the cell pellets were resuspended in 100 μl Cytoperm Plus buffer and incubated on ice for 10 minutes. The cells were then washed again with 1 ml of Perm Wash buffer and the fixation was repeated in 100 μl of Cytofix/Cyto Perm buffer for 10 minutes at room temperature. The cells were then washed with 1 ml of Perm Wash buffer. The cells were next treated for one hour at 37° C. with 100 μl DNase to expose incorporated BrdU followed by another wash step with 1 ml of Perm Wash buffer. […] Cells were protected from light and incubated at room temperature for 20-30 minutes. Following the incubation, the cells were washed with 1 ml of Perm Wash buffer, resuspended in 300 μl of 2% FBS in PBS, and analyzed on the flow cytometer. Results are presented in Table 2 as the concentration of compound (μM) that inhibits of BrdU incorporation by 50%.

[6] = test system: arrested IMR90 cells; assay: Arrested cell assay, arrested IMR90 normal cells; type: cell-based; conditions: Homo sapiens, IMR-90; serum-starved arrested cells, 72 hours; read-out: Arrested cell assay IMR90 IC50
Experimental: Cyclin-dependent kinase (Cdk) activity is required to promote the progression of cells through distinct phases of the cell division cycle. The proliferation of normal, non-transformed, cells in culture requires the presence of growth factors, the removal of which, through serum deprivation, leads to a loss of Cdk activity and consequent exit from the cell cycle as cells enter the quiescent phase, G0.
IMR90 cells were plated in triplicate for each compound concentration to be tested in MEM-A media containing 10% fetal calf serum at a density of either 2,000 or 20,000 cells per well in 24-well dishes and incubated overnight at 37° C., 5% CO2. The media was removed from the 20,000 cell-per-well dish, cells were washed once with serum-free media, and serum-free media was placed on cells. The plates containing cells both in the presence and absence of serum were incubated for 3 additional days.
The cells are incubated in the presence of the compounds for 72 hours (3 days) at 37° C. […] Cycling and arrested HCT-116 cells as well as cycling IMR90 cells were exposed to a panel of 6 doses ranging from 5 to 250 nM. For arrested normal cells, the range of doses was increased to 50 nM to 25 μM, to compensate for the expected decrease in activity.
The effect of 72 hours of compound exposure on cellular viability was assessed in the Calcein AM assay. Calcein AM is a fluorescent substrate of intracellular esterases that are only active in viable cells. Cleavage of the substrate thus provides a measure of viability, which is proportional to cell number.
A Calcein AM stock solution was prepared by dissolving a 50 μg aliquot (Molecular Probes catalogue # C3100) in 50 μl DMSO. The tube was incubated at room temperature for approximately 10 minutes to ensure that the Calcein had dissolved completely. The calcein was diluted into 10 ml PBS to prepare the final solution, which was protected from light.
The media was aspirated off the cells, which were then washed twice with 1 ml PBS to remove the PBS completely from cells by aspiration. 0.5 ml of the Calcein/PBS solution was transferred by pipette into each well. The plates were incubated at 37° C. for 75 minutes (protected from light) and read on a fluorescent plate reader (excitation 485/20 and emission 530/25).

[7] = HCT-116, non-protein adjusted, Table 6, read-out: HCT-116 viability IC50

T2 sequence (P06493 whole entry, species assumed): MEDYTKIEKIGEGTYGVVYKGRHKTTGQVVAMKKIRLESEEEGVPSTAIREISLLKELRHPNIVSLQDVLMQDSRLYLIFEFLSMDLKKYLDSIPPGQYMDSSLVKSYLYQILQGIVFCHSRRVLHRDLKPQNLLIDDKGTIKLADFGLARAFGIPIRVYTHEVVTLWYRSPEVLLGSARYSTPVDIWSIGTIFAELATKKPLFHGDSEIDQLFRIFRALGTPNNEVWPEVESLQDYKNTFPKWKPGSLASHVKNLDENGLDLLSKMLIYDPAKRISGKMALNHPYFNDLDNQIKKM
T2 sequence (P14635 whole entry partner, species assumed): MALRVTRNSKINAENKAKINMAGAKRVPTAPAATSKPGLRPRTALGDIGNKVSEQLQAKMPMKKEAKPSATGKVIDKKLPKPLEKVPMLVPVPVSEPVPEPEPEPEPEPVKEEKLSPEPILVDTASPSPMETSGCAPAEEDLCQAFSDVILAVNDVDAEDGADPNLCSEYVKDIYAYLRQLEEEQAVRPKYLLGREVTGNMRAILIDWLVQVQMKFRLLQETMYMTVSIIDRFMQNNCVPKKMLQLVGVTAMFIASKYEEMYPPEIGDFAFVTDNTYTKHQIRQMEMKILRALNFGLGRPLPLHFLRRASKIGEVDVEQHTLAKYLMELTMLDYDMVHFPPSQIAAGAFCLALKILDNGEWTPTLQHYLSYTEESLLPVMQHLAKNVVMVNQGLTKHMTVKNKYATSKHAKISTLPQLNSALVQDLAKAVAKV
T3 sequence (P11802 whole entry, species assumed): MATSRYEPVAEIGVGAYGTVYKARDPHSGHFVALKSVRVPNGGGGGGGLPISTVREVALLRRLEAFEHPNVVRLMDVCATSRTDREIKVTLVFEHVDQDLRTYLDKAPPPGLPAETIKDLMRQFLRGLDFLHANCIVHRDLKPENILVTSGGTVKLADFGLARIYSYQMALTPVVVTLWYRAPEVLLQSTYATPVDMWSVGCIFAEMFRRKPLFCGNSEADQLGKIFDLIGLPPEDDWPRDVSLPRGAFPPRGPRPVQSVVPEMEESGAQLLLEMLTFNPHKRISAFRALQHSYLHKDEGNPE
T3 sequence (P24385 whole entry partner, species assumed): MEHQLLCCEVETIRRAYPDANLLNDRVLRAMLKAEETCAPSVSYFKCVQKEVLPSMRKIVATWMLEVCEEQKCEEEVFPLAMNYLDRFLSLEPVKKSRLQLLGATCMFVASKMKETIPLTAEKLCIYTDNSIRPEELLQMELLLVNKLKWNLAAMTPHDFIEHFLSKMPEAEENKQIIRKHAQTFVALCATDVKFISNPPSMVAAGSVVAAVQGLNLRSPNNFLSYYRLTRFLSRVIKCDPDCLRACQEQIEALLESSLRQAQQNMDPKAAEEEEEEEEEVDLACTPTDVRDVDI

| IC50 [1] | IC50 [2, 7] | IC50 [3] | IC50 [4] | IC50 ([5]; HCT-116, 72 h) | IC50 ([2]; HCT-116, plus 1 mg/ml alpha acidic glycoprotein and 45 mg/ml human serum albumin, read-out: HCT-116 IC50 Protein adjusted) | IC50 ([5]; HCT-116, 24 h) | IC50 ([2]; HCT-116, 72 h, Calcein AM, 72 hours, read-out: HCT-116 IC50 Viability) | SMILES | IC50 [6] |
| --- | --- | --- | --- | --- | --- | --- | --- | --- | --- |
| < 10 nM | < 100 nM | < 1000 nM | < 10000 nM | – | – | – | – | CC(C)c1nn(-c2c(Cl)cccc2Cl)c2nc(Cc3ccc(OCCN4CCOCC4)cc3)[nH]c(=O)c12 [Compound A2] | – |
| < 10 nM | < 100 nM | < 100 nM | < 100 nM | – | – | – | – | CC(C)c1nn(-c2c(Cl)cccc2Cl)c2nc(Cc3ccc(O)cc3)[nH]c(=O)c12 [Compound A4] | – |
| < 100 nM | < 100 nM | < 100 nM | < 1000 nM | – | – | – | – | CC(C)c1nn(-c2c(Cl)cccc2Cl)c2nc(Cc3ccc(OCC(C)(C)O)cc3)[nH]c(=O)c12 [Compound A63] | – |
| < 100 nM | < 100 nM | < 100 nM | < 10000 nM | – | – | – | – | COCCOc1ccc(Cc2nc3c(c(C(C)C)nn3-c3c(Cl)cccc3Cl)c(=O)[nH]2)cc1 [Compound A66] | – |
| < 100 nM | < 100 nM | < 1000 nM | < 1000 nM | – | – | – | – | CC(C)c1nn(-c2c(Cl)cc(Cl)cc2Cl)c2nc(Cc3ccc(CN4CCN(C(C)C)CC4)n3C)[nH]c(=O)c12 [Compound A42] | – |
| < 1000 nM | < 10 nM | < 1000 nM | < 10000 nM | – | – | – | – | CCN1CCN(S(=O)(=O)c2cc(Cl)c(-n3nc(C(C)C)c4c(=O)[nH]c(Cc5ccc(OCCN6CCOCC6)cc5)nc43)c(Cl)c2)CC1 [Compound A53] | – |
| < 100 nM | < 100 nM | < 1000 nM | < 1000 nM | – | – | – | – | CC(C)c1nn(-c2c(Cl)cccc2Cl)c2nc(Cc3ccc(NS(=O)(=O)CCCN4CCOCC4)cc3)[nH]c(=O)c12 [Compound A30] | – |
| < 100 nM | < 100 nM | < 1000 nM | < 1000 nM | – | – | – | – | CC(C)c1nn(-c2c(Cl)cc(Cl)cc2Cl)c2nc(Cc3ccc(CN4CCCC4)n3C)[nH]c(=O)c12 [Compound A43] | – |
| < 100 nM | < 100 nM | < 100 nM | < 10000 nM | – | – | – | – | CCN(CCO)S(=O)(=O)c1cc(Cl)c(-n2nc(C(C)C)c3c(=O)[nH]c(Cc4ccc(OCCN5CCOCC5)cc4)nc32)c(Cl)c1 [Compound A55] | – |
| – | – | – | – | < 1000 nM | < 100 nM | – | – | CN1CCN(NC(=O)Nc2cccc3c2C(=O)c2c-3n[nH]c2-c2ccc(OCCN3CCCC3)cc2)CC1 [F] | > 1000 nM |
| – | – | – | – | – | – | < 100 nM | < 100 nM | Cc1cc(OCCN2CCCC2)ccc1-c1[nH]nc2c1C(=O)c1c(NC(=O)NN3CCN(C)CC3)cccc1-2 [L] | – |
